{"source": "patent US20020137929A1", "about": "“1 - (3-heterocyclylphenyl) isothiourea, -isourea, -guanidine and -amidine herbicidal agents” (Intellectual Property Department, BASF Aktiengesellschaft, priority 1998, published 2002)", "key": {"ABUTH (Velvetleaf)": {"test_system": "ABUTH (Velvetleaf)", "test": "Preemergence herbicidal evaluation", "type": "in vivo, Abutilon theophrasti", "details": "rated 4-5 weeks after treatment", "method_in_brief": "(§1)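 Scores use a 0–9 visual scale covering stand, vigor, malformation, size and chlorosis relative to controls, rated four to five weeks after treatment. Before emergence, soil-planted seeds were sprayed with compound in aqueous acetone at roughly 0.0156–0.500 kg/ha and held in the greenhouse.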"}, "SETVI (Foxtail, Green) [1]": {"test_system": "SETVI (Foxtail, Green)", "test": "Preemergence herbicidal evaluation", "type": "in vivo, Setaria viridis", "details": "rated 4-5 weeks after treatment", "method_in_brief": "as §1"}, "GALAP (Galium)": {"test_system": "GALAP (Galium)", "test": "Postemergence herbicidal evaluation", "type": "in vivo, Galium aparine", "method_in_brief": "(§2)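 Visual 0-9 injury score (stand, vigor, malformation, size, chlorosis, appearance vs untreated) taken four to five weeks post-spray, averaged across repeat tests. Test plants about two weeks old; foliar spray of acetone/water (1:1) with 0.5% surfactant delivering ~0.0156-0.500 kg active/ha.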"}, "CYPIR (Rice Flatsedge)": {"test_system": "CYPIR (Rice Flatsedge)", "test": "Preemergence weed control under flooded paddy conditions", "type": "in vivo, Cyperus iria", "details": "rated 3-4 weeks after treatment", "method_in_brief": "(§3)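 Visual injury scored 0-9 against control three to four weeks post-treatment, greenhouse-grown. Application: acetone/water (50/50) solutions dosed directly into flood water (1.5-3 cm over silt loam, planted top 0.5 cm), roughly 0.0313 to 0.500 kg/ha active ingredient.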"}, "SETVI (Foxtail, Green) [2]": {"test_system": "SETVI (Foxtail, Green)", "test": "Postemergence herbicidal evaluation", "type": "in vivo, Setaria viridis", "method_in_brief": "as §2"}, "[3]": {"test_system": "IPOHE (Morningglory, Ivyleaf)", "test": "Preemergence herbicidal evaluation", "type": "in vivo, Ipomoea hederacea", "details": "rated 4-5 weeks after treatment", "method_in_brief": "as §1"}, "[4]": {"test_system": "SAGPY (Arrowhead (Pygmaea))", "test": "Postemergence weed control under flooded paddy conditions", "type": "in vivo, Sagittaria pygmaea", "details": "postemergence weeds, 3-4 weeks after treatment", "method_in_brief": "(§4)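 Flood-water application, about 0.0313–0.500 kg/ha a.i. in aqueous/acetone 50/50 v/v; water depth 1.5–3 cm throughout. Weeds 3–5 cm, rice 1.5–2.5 leaf. Greenhouse; 0–9 visual rating vs control at 3–4 wk.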"}, "ECHCG (Barnyardgrass)": {"test_system": "ECHCG (Barnyardgrass)", "test": "Preemergence herbicidal evaluation", "type": "in vivo, Echinochloa crus-galli", "details": "rated 4-5 weeks after treatment", "method_in_brief": "as §1"}, "MOOVA (Monochoria)": {"test_system": "MOOVA (Monochoria)", "test": "Preemergence weed control under flooded paddy conditions", "type": "in vivo, Monochoria vaginalis", "details": "rated 3-4 weeks after treatment", "method_in_brief": "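Seeds or propagules sown in silt loam kept flooded 1.5-3 cm; compounds in 50/50 acetone/water pipetted into flood water at about 0.0313 to 0.500 kg/ha. Greenhouse; visual 0-9 rating versus untreated control 3-4 weeks after treatment.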"}, "[5]": {"test_system": "IPOHE (Morningglory, Ivyleaf)", "test": "Postemergence herbicidal evaluation", "type": "in vivo, Ipomoea hederacea", "method_in_brief": "as §2"}, "[6]": {"test_system": "ECHORC (Watergrass (Calif.))", "test": "Postemergence weed control under flooded paddy conditions", "type": "in vivo, Echinochloa oryzoides", "details": "postemergence weeds, 3-4 weeks after treatment", "method_in_brief": "as §4"}, "ZEAMX (Corn, Field)": {"test_system": "ZEAMX (Corn, Field)", "test": "Preemergence herbicidal evaluation", "type": "in vivo, Zea mays", "details": "rated 4-5 weeks after treatment", "method_in_brief": "as §1"}, "[7]": {"test_system": "TRZAWR (Wheat, Winter, cv Riband)", "test": "Postemergence herbicidal evaluation", "type": "in vivo, Triticum aestivum", "method_in_brief": "as §2"}, "[8]": {"test_system": "ECHORC (Watergrass (Calif.))", "test": "Preemergence weed control under flooded paddy conditions", "type": "in vivo, Echinochloa oryzoides", "details": "rated 3-4 weeks after treatment", "method_in_brief": "as §3"}}, "data": [{"smiles": "CCOC(=O)CN1C(=O)C(CCO)S/C1=N/c1cc(-n2c(=O)cc(C(F)(F)F)n(C)c2=O)c(F)cc1Cl", "note": "(centres unmarked) [Compound 49, Ethyl 2-{{2-chloro-5-[3,6-dihydro-3-methyl-2,6-dioxo-4-(trifluoromethyl)-1(2H)-pyrimidinyl]-4-fluorophenyl}imino}-5-(hydroxyethyl)-4-oxo-3-thiazolidineacetate]", "values": [{"measurement": "Preemergence herbicidal rating ABUTH", "setting": "ABUTH (Velvetleaf); rate 0.0156 kg/ha", "value": 9.0}, {"measurement": "Preemergence herbicidal rating ABUTH", "setting": "ABUTH (Velvetleaf); rate 0.0313 kg/ha", "value": 9.0}, {"measurement": "Preemergence herbicidal rating ABUTH", "setting": "ABUTH (Velvetleaf); rate 0.0625 kg/ha", "value": 9.0}, {"measurement": "Preemergence herbicidal rating ABUTH", "setting": "ABUTH (Velvetleaf); rate 0.1250 kg/ha", "value": 9.0}, {"measurement": "Preemergence herbicidal rating ABUTH", "setting": "ABUTH (Velvetleaf); rate 0.2500 kg/ha", "value": 9.0}, {"measurement": "Preemergence herbicidal rating SETVI", "setting": "SETVI (Foxtail, Green) [1]; rate 0.0156 kg/ha", "value": 0.0}, {"measurement": "Preemergence herbicidal rating SETVI", "setting": "SETVI (Foxtail, Green) [1]; rate 0.0313 kg/ha", "value": 4.0}, {"measurement": "Preemergence herbicidal rating SETVI", "setting": "SETVI (Foxtail, Green) [1]; rate 0.0625 kg/ha", "value": 5.0}, {"measurement": "Preemergence herbicidal rating SETVI", "setting": "SETVI (Foxtail, Green) [1]; rate 0.2500 kg/ha", "value": 5.0}, {"measurement": "Postemergence herbicidal rating GALAP", "setting": "GALAP (Galium); Rate 0.0313 kg/ha", "value": 4.0}, {"measurement": "Postemergence herbicidal rating GALAP", "setting": "GALAP (Galium); Rate 0.0625 kg/ha", "value": 4.0}, {"measurement": "Postemergence herbicidal rating GALAP", "setting": "GALAP (Galium); rate 0.0156 kg/ha", "value": 2.0}, {"measurement": "Herbicidal rating CYPIR", "setting": "CYPIR (Rice Flatsedge); 0.0313 kg/ha", "value": 0.0}, {"measurement": "Herbicidal rating CYPIR", "setting": "CYPIR (Rice Flatsedge); 0.0625 kg/ha", "value": 0.0}, {"measurement": "Herbicidal rating CYPIR", "setting": "CYPIR (Rice Flatsedge); 0.1250 kg/ha", "value": 2.0}, {"measurement": "Herbicidal rating CYPIR", "setting": "CYPIR (Rice Flatsedge); 0.2500 kg/ha", "value": 7.0}, {"measurement": "Postemergence herbicidal rating SETVI", "setting": "SETVI (Foxtail, Green) [2]; Rate 0.0313 kg/ha", "value": 4.0}, {"measurement": "Postemergence herbicidal rating SETVI", "setting": "SETVI (Foxtail, Green) [2]; Rate 0.0625 kg/ha", "value": 7.0}, {"measurement": "Postemergence herbicidal rating SETVI", "setting": "SETVI (Foxtail, Green) [2]; rate 0.0156 kg/ha", "value": 3.0}, {"measurement": "Preemergence herbicidal rating IPOHE", "setting": "[3]; rate 0.0156 kg/ha", "value": 0.0}, {"measurement": "Preemergence herbicidal rating IPOHE", "setting": "[3]; rate 0.0313 kg/ha", "value": 0.0}, {"measurement": "Preemergence herbicidal rating IPOHE", "setting": "[3]; rate 0.0625 kg/ha", "value": 2.0}, {"measurement": "Preemergence herbicidal rating IPOHE", "setting": "[3]; rate 0.1250 kg/ha", "value": 9.0}, {"measurement": "Preemergence herbicidal rating IPOHE", "setting": "[3]; rate 0.2500 kg/ha", "value": 9.0}, {"measurement": "Herbicidal rating SAGPY", "setting": "[4]; rate 0.0313 kg/ha", "value": 2.0}, {"measurement": "Herbicidal rating SAGPY", "setting": "[4]; rate 0.0625 kg/ha", "value": 4.0}, {"measurement": "Herbicidal rating SAGPY", "setting": "[4]; rate 0.1250 kg/ha", "value": 6.0}, {"measurement": "Herbicidal rating SAGPY", "setting": "[4]; rate 0.2500 kg/ha", "value": 7.0}, {"measurement": "Preemergence herbicidal rating ECHCG", "setting": "ECHCG (Barnyardgrass); rate 0.0156 kg/ha", "value": 0.0}, {"measurement": "Preemergence herbicidal rating ECHCG", "setting": "ECHCG (Barnyardgrass); rate 0.0313 kg/ha", "value": 0.0}, {"measurement": "Preemergence herbicidal rating ECHCG", "setting": "ECHCG (Barnyardgrass); rate 0.0625 kg/ha", "value": 0.0}, {"measurement": "Preemergence herbicidal rating ECHCG", "setting": "ECHCG (Barnyardgrass); rate 0.1250 kg/ha", "value": 0.0}, {"measurement": "Preemergence herbicidal rating ECHCG", "setting": "ECHCG (Barnyardgrass); rate 0.2500 kg/ha", "value": 3.0}, {"measurement": "Herbicidal rating MOOVA", "setting": "MOOVA (Monochoria); 0.0313 kg/ha", "value": 9.0}, {"measurement": "Herbicidal rating MOOVA", "setting": "MOOVA (Monochoria); 0.0625 kg/ha", "value": 9.0}, {"measurement": "Herbicidal rating MOOVA", "setting": "MOOVA (Monochoria); 0.1250 kg/ha", "value": 9.0}, {"measurement": "Herbicidal rating MOOVA", "setting": "MOOVA (Monochoria); 0.2500 kg/ha", "value": 9.0}, {"measurement": "Postemergence herbicidal rating IPOHE", "setting": "[5]; Rate 0.0313 kg/ha", "value": 9.0}, {"measurement": "Postemergence herbicidal rating IPOHE", "setting": "[5]; Rate 0.0625 kg/ha", "value": 9.0}, {"measurement": "Postemergence herbicidal rating IPOHE", "setting": "[5]; rate 0.0156 kg/ha", "value": 9.0}, {"measurement": "Herbicidal rating ECHORC", "setting": "[6]; rate 0.0313 kg/ha", "value": 0.0}, {"measurement": "Herbicidal rating ECHORC", "setting": "[6]; rate 0.0625 kg/ha", "value": 2.0}, {"measurement": "Herbicidal rating ECHORC", "setting": "[6]; rate 0.1250 kg/ha", "value": 5.0}, {"measurement": "Herbicidal rating ECHORC", "setting": "[6]; rate 0.2500 kg/ha", "value": 7.0}, {"measurement": "Preemergence herbicidal rating ZEAMX", "setting": "ZEAMX (Corn, Field); rate 0.0156 kg/ha", "value": 0.0}, {"measurement": "Preemergence herbicidal rating ZEAMX", "setting": "ZEAMX (Corn, Field); rate 0.0313 kg/ha", "value": 0.0}, {"measurement": "Preemergence herbicidal rating ZEAMX", "setting": "ZEAMX (Corn, Field); rate 0.0625 kg/ha", "value": 0.0}, {"measurement": "Preemergence herbicidal rating ZEAMX", "setting": "ZEAMX (Corn, Field); rate 0.1250 kg/ha", "value": 3.0}, {"measurement": "Preemergence herbicidal rating ZEAMX", "setting": "ZEAMX (Corn, Field); rate 0.2500 kg/ha", "value": 3.0}, {"measurement": "Postemergence herbicidal rating TRZAWR", "setting": "[7]; Rate 0.0313 kg/ha", "value": 4.5}, {"measurement": "Postemergence herbicidal rating TRZAWR", "setting": "[7]; Rate 0.0625 kg/ha", "value": 4.5}, {"measurement": "Postemergence herbicidal rating TRZAWR", "setting": "[7]; rate 0.0156 kg/ha", "value": 4.0}, {"measurement": "Herbicidal rating ECHORC", "setting": "[8]; 0.0313 kg/ha", "value": 0.0}, {"measurement": "Herbicidal rating ECHORC", "setting": "[8]; 0.0625 kg/ha", "value": 2.0}, {"measurement": "Herbicidal rating ECHORC", "setting": "[8]; 0.1250 kg/ha", "value": 5.0}, {"measurement": "Herbicidal rating ECHORC", "setting": "[8]; 0.2500 kg/ha", "value": 7.0}]}]}
